Measurements as given in publication PMC4978154, “Phase I metabolites of mephedrone display biological activity as substrates at monoamine transporters” (British Journal of Pharmacology, 2016).

Experiments:
hDAT = target: T1, hDAT (Homo sapiens, UniProt Q01959); test: Transporter release (superfusion) assay in HEK293 cells expressing hDAT; format: cell-based; details: test drug 10 μM, monensin 10 μM; post hoc Bonferroni
T1 construct: expressed in transfected cells
Experimental: The generation of HEK293 cells stably expressing the human isoforms of DAT (hDAT) and NET (hNET) was carried out as described previously (Scholze et al., 2002). For SERT, the human isoform (hSERT) was cloned in frame with yellow fluorescent protein (Schmid et al., 2001). The generation of a stable cell line was performed as described by Hilber and colleagues (Hilber et al., 2005). HEK293 cells were maintained in humidified atmosphere (5% CO2, 37°C) in DMEM, supplemented with 10% heat‐inactivated FBS and penicillin (100 u 100 mL^−1) and streptomycin (100 μg 100 mL^−1). Selection pressure was maintained by adding geneticin (50 μg·mL^−1) to the cell culture media.
Superfusion experiments were performed as described previously (Scholze et al., 2002). Briefly, HEK293 cells expressing the desired transporter were seeded at a density of 40 000 cells per well onto poly‐D‐lysine‐coated 5 mm glass cover slips in 96‐well plates 24 h prior to the experiment. Cells were preloaded with [^3H]‐MPP^+ (0.1 μM, hDAT and hNET) or [^3H]‐5‐HT (0.4 μM, hSERT) for 20 min at 37°C in a final volume of 100 μL per well. Subsequently, glass coverslips were transferred into small superfusion chambers (volume of 200 μL) and superfused with KHB at 25°C with a superfusion rate of 0.7 mL·min^−1 for 40 min to establish a stable basal efflux. After washout, the collection of 2‐min fractions was initiated. After the first three basal fractions, monensin (10 μM) or solvent was added for four fractions. Consequently, the cells were challenged with test drugs (10 μM) for five fractions in the presence or absence of monensin. Finally, the cells were lysed in 1% SDS to determine the total radioactivity. Radioactivity per fraction was assessed by a liquid scintillation counter and expressed as fractional release, that is, the percentage of released ^3H in relation to total ^3H present at the beginning of the fraction (Sitte et al., 2000). For analysis, release was expressed as AUC.
(§1) Calculations were performed using Microsoft Excel® 2010 (Microsoft Corporation, Redmond, WA, USA) and GRAPHPAD PRISM 5.0. (GraphPad Software Inc., La Jolla, CA, USA). IC50 values for uptake inhibition and EC50 values for release were determined by nonlinear regression fits. Release data expressed as AUC were analysed by one‐way ANOVA followed by Bonferroni's multiple comparison test. Microdialysis and locomotor data were analysed by two‐way ANOVA (drug treatment × time) followed by Bonferroni's test. The effect of monensin treatment on basal efflux of tritiated substrate was analysed with the Mann–Whitney test. P values less than 0.05 (i.e. P < 0.05) were considered significant. The data and statistical analysis comply with the recommendations on experimental design and analysis in pharmacology (Curtis et al., 2015).
Data from uptake inhibition assays cannot distinguish whether test drugs act as non‐transported inhibitors or transportable substrates, which evoke release (Scholze et al., 2000; Sitte et al., 2000; Baumann et al., 2013). Therefore, mephedrone and its metabolites were tested in release assays to further explore their interaction with transporters. The release assays were performed with the same transporter‐expressing HEK293 cell lines described above and used a superfusion system (Sitte et al., 2000). As described previously, efflux of preloaded [^3H]‐MPP^+ or [^3H]‐5‐HT was monitored in the presence or absence of monensin (10 μM) (Scholze et al., 2000). […]

rats = test: Locomotor activity (photobeam breaks) during microdialysis; format: in vivo; details: rat; for effect on motor behaviour (activity): 1 and 3 mg·kg−1 i.v.; for effect on motor activity: 3 mg·kg−1 i.v.
Experimental: In vivo microdialysis procedures were carried out as previously described with minor modifications (Baumann et al., 2012). Briefly, male rats anaesthetized with sodium pentobarbital (60 mg·kg^−1, i.p.) received surgically implanted jugular catheters, and intracerebral guide cannulae aimed at the nucleus accumbens (AP +1.6 mm, ML −1.7 mm relative to bregma; −6.2 mm relative to dura) (Paxinos and Watson, 2007). After a 7–10 day recovery, each rat was placed into a chamber equipped with photobeams for the detection of motor parameters (TruScan, Harvard Apparatus, Holliston, MA, USA) and allowed to acclimatize overnight. Food and water were available ad libitum during the acclimatization period. On the following morning, catheters were attached to PE 50 extension tubes, and 0.5 × 2 mm microdialysis probes (CMA/12, Harvard Apparatus, Holliston, MA, USA) were inserted into the guide cannulae. Ringers' solution (150 mM NaCl, 2.8 mM KCl and 2.0 mM CaCl2) was perfused through the probes at 0.6 μL·min^−1 for 3 h. To commence experiments, dialysate samples ([…]) were collected at 20 min intervals, and drug or saline treatments were given after three baseline samples were obtained. Rats received two sequential i.v. injections of mephedrone or its metabolites, with 1 mg·kg^−1 administered at time zero, followed by 3 mg·kg^−1 60 min later. Saline was administered using the same schedule in a separate group of rats. Dialysate concentrations of dopamine and 5‐HT were quantified using HPLC coupled to electrochemical detection (Baumann et al., 2012). Chromatographic data were exported to an Empower software system (Waters, Inc., Milford, MA, USA) for peak identification, integration and analysis.
as §1

T1 sequence (Q01959 whole entry, the tested form may be a part): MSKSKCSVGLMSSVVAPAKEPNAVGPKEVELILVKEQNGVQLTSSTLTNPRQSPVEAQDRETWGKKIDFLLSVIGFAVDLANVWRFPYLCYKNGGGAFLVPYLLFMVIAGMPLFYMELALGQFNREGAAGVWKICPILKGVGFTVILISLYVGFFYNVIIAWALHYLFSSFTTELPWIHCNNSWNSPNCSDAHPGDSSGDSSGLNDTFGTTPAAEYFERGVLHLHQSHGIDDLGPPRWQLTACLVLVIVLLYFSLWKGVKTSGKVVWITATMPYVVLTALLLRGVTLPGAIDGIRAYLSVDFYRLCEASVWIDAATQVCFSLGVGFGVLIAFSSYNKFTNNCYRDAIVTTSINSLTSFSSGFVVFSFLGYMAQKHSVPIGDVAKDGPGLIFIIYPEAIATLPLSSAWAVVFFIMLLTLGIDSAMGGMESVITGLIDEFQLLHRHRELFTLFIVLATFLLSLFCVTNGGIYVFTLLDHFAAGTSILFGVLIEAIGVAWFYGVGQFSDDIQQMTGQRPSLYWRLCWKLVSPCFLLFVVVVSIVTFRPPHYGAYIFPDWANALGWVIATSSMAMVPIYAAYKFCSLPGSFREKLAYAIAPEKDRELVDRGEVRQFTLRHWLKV

CNC(C)C(=O)c1ccc(CO)cc1.Cl (centres unmarked) [4‐OH‐mephedrone, 1‐(4‐(hydroxymethyl)phenyl)‐2‐(methylamino)propan‐1‐one hydrochloride]
enhancement by monensin of drug-evoked [3H]-MPP+ release at hDAT (AUC) (hDAT): significant | effect on motor behaviour (activity) (rats): did not

CNC(C)C(=O)c1ccc(C)cc1.Cl (centres unmarked) [Mephedrone, 2‐Methylamino‐1‐(p‐tolyl)propan‐1‐one hydrochloride]
enhancement by monensin of drug-evoked [3H]-MPP+ release at hDAT (AUC) (hDAT): significant | effect on motor activity (rats): significantly stimulated motor activity | effect on motor behaviour (activity) (rats): increased activity

Cc1ccc(C(=O)C(C)N)cc1.Cl (centres unmarked) [Nor‐mephedrone, 2‐amino‐1‐(p‐tolyl)propan‐1‐one hydrochloride]
enhancement by monensin of drug-evoked [3H]-MPP+ release at hDAT (AUC) (hDAT): significant | effect on motor activity (rats): significantly stimulated motor activity | effect on motor behaviour (activity) (rats): increased activity
